# Measurements from patent publication US20110306621A1, “ACYLGUANIDINE DERIVATIVES” (priority 2009, published 2011).
# Target: T1, human 5-HT5A receptor (Homo sapiens, UniProt P47898)
# T1 construct: expressed in transfected cells; membranes used
# Assay: Test on a human 5-HT5A receptor binding inhibition ([3H]5-CT)
# Settings: membrane from HEK293 cells for forced expression of human 5-HT5A receptor; Ki calculated from IC50 and Kd of [3H]5-CT (4.95 nM)
# Protocol: The ORF (open reading frame; protein coding region) of a human 5-HT5A receptor (Genbank AF498985) was cloned from a human hippocampus cDNA library, and then inserted into a pCR2.1 vector (Invitrogen), and Escherichia coli containing the plasmid was cultured in a large amount. Next, the full-length cDNA sequence of the human 5-HT5A receptor was analyzed, and recombined into a pcDNA3.1 vector (Invitrogen) as an expression vector and cultured in a large amount. HEK293 established cells (ATCC) derived from the human fetal kidney were seeded, the expression plasmid (1 μg) obtained above were added thereto with LIPOFECTAMINE 2000 (Invitrogen; 2 μl), the gene was transfected into HEK293 cells, and the expression cells were screened with a drug-resistant marker, Geneticin (G418 sulfate 500 μg/ml; Kanto Chemical Co., Inc.). Thus prepared recombinant cells which expressed the gene were cultured in a medium containing D-MEM (Dulbecco's modified eagle medium, Sigma), 10% FCS (Fetal calf serum: fetal bovine serum), 1% Pc./Sm (Penicillin/Streptomycin, Invitrogen), and 500 μg/ml G418 for 3 days. These experimental operations followed a manual for gene operation experiment and an instruction appended in a reagent, and the like, such as a known method (Sambrook, J. et al, Molecular Cloning-A Laboratory Manual”, Cold Spring Harabor laboratory, NY, 1989).
# HEK293 cells for forced expressions of a human 5-HT5A receptor were cultured in a F500 plate, and scraped with a scraper. After centrifugation, the precipitate was collected, and an incubation buffer (50 mM Tris (HCl) (pH 7.4), 10 mM MgSO4, and 0.5 mM EDTA (ethylenediamine tetraacetic acid)) was added thereto. After homogenization, it was further centrifuged, and the incubation buffer was added to the precipitate, followed by thoroughly suspending. The operation was repeated, and protein concentration was measured, thereby completing preparation of the membrane.
# A solution of the compound to be tested and 100 μM 5-CT (5-carboxamidetriptamine) in DMSO was added to a 96-well plate at 2 μl/well, suspended in an incubation buffer, and a membrane from HEK293 cells for forced expressions of a human 5-HT5A receptor prepared at 200 μg/ml was added at 100 μl/well. After incubation at room temperature for 15 minutes, a [^3H]5-CT solution (2 nM [^3H]5-CT, incubation buffer) was added thereto at 100 μl/well.
# Separately, 100 μl of the solution was distributed into a liquid scintillation vial, and 2 ml of Aquasol II (registered trademark) was added thereto, followed by stirring. Then, radioactivity was measured by a liquid scintillation counter. It was incubated at 37° C. for 60 minutes. The reaction mixture was sucked into 96-well GF/C filter plate that had been pre-treated with 0.2% polyethyleneimine, and washed six times with an ice-cooled, 50 mM Tris (pH 7.5) buffer. The GF/C filter plate was dried.
# Microscint TMPS (registered trademark) was added thereto at 40 μl/well. Radioactivity remaining on the GF/C filter plate was measured by a top counter.
# The [^3H]5-CT binding inhibiting activity by the compound to be tested in each experiment was determined as an IC50 value with a radioactivity upon addition of DMSO alone being 0% inhibition, and a radioactivity upon addition of 1 μM 5-CT being 100% inhibition. Separately, Ki values were calculated from the Kd value of the [^3H]5-CT determined from Scatchard analysis, by the following equation.
# Ki=IC50 (1+Concentraion of ligand added/Kd (4.95 nM))
# T1 sequence (P47898 whole entry): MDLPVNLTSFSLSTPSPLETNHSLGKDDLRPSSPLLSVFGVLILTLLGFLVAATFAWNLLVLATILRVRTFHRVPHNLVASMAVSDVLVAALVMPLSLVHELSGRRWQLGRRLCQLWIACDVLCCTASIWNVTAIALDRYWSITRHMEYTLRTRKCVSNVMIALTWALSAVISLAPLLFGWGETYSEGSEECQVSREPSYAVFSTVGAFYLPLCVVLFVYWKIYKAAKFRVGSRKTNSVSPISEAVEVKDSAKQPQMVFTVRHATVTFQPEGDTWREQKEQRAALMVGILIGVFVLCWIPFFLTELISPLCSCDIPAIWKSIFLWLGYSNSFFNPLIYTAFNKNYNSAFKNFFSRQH
row,Compound,Ki [nM]
1,NC(N)=NC(=O)c1ccc2cccc(-c3cccc(O)c3F)c2c1 [Example 106],0.3 to 3
2,N#Cc1cc(F)c(-c2cccc3ccc(C(=O)N=C(N)N)cc23)c(F)c1 [Example 155],0.3 to 3
3,COc1ccc(-c2c(C)ccc3ccc(C(=O)N=C(N)N)cc23)cc1 [Example 12],0.3 to 3
4,COc1cc(-c2cccc3ccc(C(=O)N=C(N)N)cc23)c(Cl)cn1 [Example 63],3 to 30
5,NC(N)=NC(=O)c1ccc2cccc(-c3ccnc(C(F)(F)F)n3)c2c1 [Example 187],3 to 30
6,NC(N)=NC(=O)c1ccc2cccc(-c3ncc(F)cc3Cl)c2c1 [Example 169],0.3 to 3
7,NC(N)=NC(=O)c1ccc2cccc(-c3cccc(C(F)(F)F)n3)c2c1 [Example 154],3 to 30
8,N#Cc1ccccc1-c1cccc2ccc(C(=O)N=C(N)N)cc12 [Example 20],3 to 30
9,NC(N)=NC(=O)c1ccc2cccc(-c3cc(F)ncc3Cl)c2c1 [Example 65],3 to 30
10,NC(N)=NC(=O)c1ccc2cccc(-c3ccc(Cl)cc3Cl)c2c1 [Example 61],0.3 to 3
11,NC(N)=NC(=O)c1ccc2cccc(-c3c(F)cncc3Cl)c2c1 [Example 148],0.3 to 3
12,COc1cc(C#N)ccc1-c1c(Cl)ccc2ccc(C(=O)N=C(N)N)cc12 [Example 145],0.3 to 3
13,NC(N)=NC(=O)c1ccc2cccc(-c3ccc(C(F)(F)F)cn3)c2c1 [Example 189],3 to 30
14,NC(N)=NC(=O)c1ccc2cccc(-c3c(O)cccc3Cl)c2c1 [Example 116],0.3 to 3
15,NC(N)=NC(=O)c1ccc2cccc(-c3ccncc3)c2c1 [Example 133],3 to 30
16,NC(N)=NC(=O)c1ccc2cccc(-c3ccc(Cl)nc3)c2c1 [Example 54],3 to 30
17,NC(N)=NC(=O)c1ccc2cccc(-c3ncc(Cl)cc3F)c2c1 [Example 180],3 to 30
18,NC(N)=NC(=O)c1ccc2cccc(-c3ccc(Cl)cc3)c2c1 [Example 89],0.3 to 3
19,Cc1nc(-c2ccccc2)sc1-c1cccc2ccc(C(=O)N=C(N)N)cc12 [Example 122],3 to 30
20,NC(N)=NC(=O)c1ccc2cccc(-c3c(F)cc(CO)cc3F)c2c1 [Example 121],0.3 to 3
21,NC(N)=NC(=O)c1ccc2cccc(-c3cc(F)ccc3F)c2c1 [Example 68],0.3 to 3
22,COc1c(F)cc(F)c(-c2cccc3ccc(C(=O)N=C(N)N)cc23)c1F [Example 127],3 to 30
23,CCOc1ncc(Cl)c(-c2cccc3ccc(C(=O)N=C(N)N)cc23)c1Cl [Example 67],0.3 to 3
24,COc1ccc(F)cc1-c1cccc2ccc(C(=O)N=C(N)N)cc12 [Example 34],3 to 30

row,Compound,Ki [nM]
1,Cc1c(-c2cccc3ccc(C(=O)N=C(N)N)cc23)ncnc1C1CC1 [Example 193],30 to 300
2,Cn1ncc(Cl)c1-c1cccc2ccc(C(=O)N=C(N)N)cc12 [Example 91],3 to 30
3,NC(N)=NC(=O)c1ccc2cccc(-c3cccc4c3OCO4)c2c1 [Example 92],0.3 to 3
4,COc1c(F)cccc1-c1cccc2ccc(C(=O)N=C(N)N)cc12 [Example 27],3 to 30
5,NC(N)=NC(=O)c1ccc2cccc(-c3ccsc3)c2c1 [Example 47],0.3 to 3
6,NC(N)=NC(=O)c1ccc2cccc(-c3c(F)cccc3F)c2c1 [Example 36],0.3 to 3
7,NC(N)=NC(=O)c1ccc2cccc(-c3ccnc4ccccc34)c2c1 [Example 129],0.3 to 3
8,Cc1cc(Cl)cnc1-c1cccc2ccc(C(=O)N=C(N)N)cc12 [Example 152],3 to 30
9,NC(N)=NC(=O)c1ccc2cccc(-c3cccc4c3OCCO4)c2c1 [Example 28],3 to 30
10,Cc1nc(-c2ccc(-c3cccc4ccc(C(=O)N=C(N)N)cc34)cc2)no1 [Example 137],3 to 30
11,NC(N)=NC(=O)c1ccc2cccc(-c3cccc(Cl)c3F)c2c1 [Example 69],0.3 to 3
12,N#Cc1cccc(-c2cccc3ccc(C(=O)N=C(N)N)cc23)c1F [Example 80],0.3 to 3
13,COc1ccc(F)c(-c2cccc3ccc(C(=O)N=C(N)N)cc23)c1 [Example 41],3 to 30
14,N#Cc1ccc(-c2cccc3ccc(C(=O)N=C(N)N)cc23)cc1 [Example 2],0.3 to 3
15,Cc1ccc2ccc(C(=O)N=C(N)N)cc2c1-c1ccccc1O [Example 162],3 to 30
16,Cc1ccncc1-c1cccc2ccc(C(=O)N=C(N)N)cc12 [Example 100],3 to 30
17,Cc1cc(-c2cccc3ccc(C(=O)N=C(N)N)cc23)cc(C)n1 [Example 166],3 to 30
18,N#Cc1sccc1-c1cccc2ccc(C(=O)N=C(N)N)cc12 [Example 51],3 to 30
19,NC(N)=NC(=O)c1ccc2cccc(-c3ccc(F)cc3F)c2c1 [Example 35],0.3 to 3
20,COc1ncccc1-c1c(Cl)ccc2ccc(C(=O)N=C(N)N)cc12 [Example 146],0.3 to 3
21,CCOc1ncc(Cl)c(-c2cccc3ccc(C(=O)N=C(N)N)cc23)c1F [Example 66],0.3 to 3
22,NC(N)=NC(=O)c1ccc2cccc(-c3c(F)cc(O)cc3F)c2c1 [Example 142],0.3 to 3
23,NC(N)=NC(=O)c1ccc2cccc(-c3cccc(F)c3Cl)c2c1 [Example 77],0.3 to 3
24,NC(N)=NC(=O)c1ccc2ccc(Cl)c(-c3ccncc3Cl)c2c1 [Example 157],0.3 to 3

row,Compound,Ki [nM]
1,COc1cc(C#N)ccc1-c1ccc(F)c2ccc(C(=O)N=C(N)N)cc12 [Example 188],0.3 to 3
2,NC(N)=NC(=O)c1ccc2ccc(F)c(-c3ccncc3Cl)c2c1 [Example 160],0.3 to 3
3,NC(N)=NC(=O)c1ccc2cccc(-c3cccs3)c2c1 [Example 46],0.3 to 3
4,NC(N)=NC(=O)c1ccc2cccc(-c3ccc(F)c4c3C(=O)CC4)c2c1 [Example 126],30 to 300
5,N#Cc1ncccc1-c1cccc2ccc(C(=O)N=C(N)N)cc12 [Example 56],3 to 30
6,NC(N)=NC(=O)c1ccc2ccc(Cl)c(-c3ccncc3)c2c1 [Example 147],0.3 to 3
7,NC(N)=NC(=O)c1ccc2cccc(-c3cc(C(F)(F)F)ncn3)c2c1 [Example 183],3 to 30
8,NC(N)=NC(=O)c1ccc2cccc(-c3ncccc3C(F)(F)F)c2c1 [Example 168],30 to 300
9,NC(N)=NC(=O)c1ccc2cccc(-c3ncccc3F)c2c1 [Example 135],3 to 30
10,Cc1ccc2ccc(C(=O)N=C(N)N)cc2c1-c1ccc(F)cc1 [Example 11],0.3 to 3
11,NC(N)=NC(=O)c1ccc2cccc(-c3c(F)cc(F)c(O)c3F)c2c1 [Example 143],0.3 to 3
12,NC(N)=NC(=O)c1ccc2cccc(-c3c(F)ccc(O)c3Cl)c2c1 [Example 119],0.3 to 3
13,NC(N)=NC(=O)c1ccc2cccc(-c3cccc4ccccc34)c2c1 [Example 102],3 to 30
14,NC(N)=NC(=O)c1ccc2cccc(-c3ccc(Cl)cc3F)c2c1 [Example 59],0.3 to 3
15,N#Cc1cccnc1-c1cccc2ccc(C(=O)N=C(N)N)cc12 [Example 181],30 to 300
16,NC(N)=NC(=O)c1ccc2cccc(-c3cccc4ncccc34)c2c1 [Example 109],0.3 to 3
17,NC(N)=NC(=O)c1ccc2cccc(-c3ccccc3)c2c1 [Example 87],0.3 to 3
18,Cc1nc(C2CC2)sc1-c1cccc2ccc(C(=O)N=C(N)N)cc12 [Example 163],3 to 30
19,Cc1nc(C)c(-c2cccc3ccc(C(=O)N=C(N)N)cc23)s1 [Example 17],3 to 30
20,N#Cc1cc(F)cc(F)c1-c1cccc2ccc(C(=O)N=C(N)N)cc12 [Example 149],0.3 to 3
21,NC(N)=NC(=O)c1ccc2cccc(-c3ccccc3F)c2c1 [Example 6],0.3 to 3
22,NC(N)=NC(=O)c1ccc2cccc(-c3cccc(Cl)c3O)c2c1 [Example 178],0.3 to 3
23,COc1cc(F)ccc1-c1cccc2ccc(C(=O)N=C(N)N)cc12 [Example 4],0.3 to 3
24,COc1cccc(-c2cccc3ccc(C(=O)N=C(N)N)cc23)n1 [Example 159],3 to 30
